Experiments:
[1] = test system: Male Wiga Wistar rats; assay: Reversal of LY-404039-induced decrease of palpebral opening in apomorphine-challenged rats; assay type: in vivo, rat; conditions: for ED50: Rattus norvegicus, rats, route PO (route cell empty for Co. 88 and 84), read-out: ED50 APO LY-404039 (Reversal of LY-404039-induced decrease of palpebral opening in apomorphine challenged rats)
Experimental: 1) Reversal of LY-404039-Induced Decrease of Palpebral Opening in Apomorphine-Challenged Rats.
Male Wiga Wistar rats (Crl:WI; Charles River Germany; 220±40 g) were housed under standard laboratory conditions (21±2° C.; 50-65% relative humidity; light-dark cycle set at 12 h; lights on at 6.00 h) and fasted overnight prior to the start of the experiments (tap water remained available ad libitum). During the test period, they were housed in individual cages. Palpebral opening was scored every 5 min over the first hour after injection of apomorphine (1.0 mg/kg, i.v.) in animals either pretreated or not pretreated with LY-404039 (2.5 mg/kg, s.c.) at 1 h prior to the apomorphine injection. The animals were also pretreated with test compound or solvent at a predefined interval before apomorphine challenge. The score system was: (5) exophthalmos, (4) wide open, (3) open for three-quarters, (2) half open, (1) open for one-quarter, (0) closed. The scores for palpebral opening were cumulated over the 60-min observation period.

[2] = molecular target: human mGlu2 receptor (Homo sapiens, UniProt Q14416); assay: [35S]GTPγS binding assay, mGluR2 negative allosteric modulation (membranes from CHO cells transfected with human mGlu2 receptor, glutamate ~EC80 60 μM); conditions: for IC50: GTPγS - hmGluR2 anGT pIC50, membranes with human mGlu2 receptor, glutamate ~EC80 (60 μM), pIC50 = -log IC50 (M); for Emax: read-out: GTPγS - hmGluR2 anGT Emax, relative maximal effect: maximal % inhibition relative to the control glutamate response;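 for all read-outs here: membranes preincubated 30 min at 30 °C with compound plus glutamate, then [35S]GTPγS (0.1 nM) incorporation measured over another 30 min at 30 °C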
Chain of human mGlu2 receptor (Q14416 19-872): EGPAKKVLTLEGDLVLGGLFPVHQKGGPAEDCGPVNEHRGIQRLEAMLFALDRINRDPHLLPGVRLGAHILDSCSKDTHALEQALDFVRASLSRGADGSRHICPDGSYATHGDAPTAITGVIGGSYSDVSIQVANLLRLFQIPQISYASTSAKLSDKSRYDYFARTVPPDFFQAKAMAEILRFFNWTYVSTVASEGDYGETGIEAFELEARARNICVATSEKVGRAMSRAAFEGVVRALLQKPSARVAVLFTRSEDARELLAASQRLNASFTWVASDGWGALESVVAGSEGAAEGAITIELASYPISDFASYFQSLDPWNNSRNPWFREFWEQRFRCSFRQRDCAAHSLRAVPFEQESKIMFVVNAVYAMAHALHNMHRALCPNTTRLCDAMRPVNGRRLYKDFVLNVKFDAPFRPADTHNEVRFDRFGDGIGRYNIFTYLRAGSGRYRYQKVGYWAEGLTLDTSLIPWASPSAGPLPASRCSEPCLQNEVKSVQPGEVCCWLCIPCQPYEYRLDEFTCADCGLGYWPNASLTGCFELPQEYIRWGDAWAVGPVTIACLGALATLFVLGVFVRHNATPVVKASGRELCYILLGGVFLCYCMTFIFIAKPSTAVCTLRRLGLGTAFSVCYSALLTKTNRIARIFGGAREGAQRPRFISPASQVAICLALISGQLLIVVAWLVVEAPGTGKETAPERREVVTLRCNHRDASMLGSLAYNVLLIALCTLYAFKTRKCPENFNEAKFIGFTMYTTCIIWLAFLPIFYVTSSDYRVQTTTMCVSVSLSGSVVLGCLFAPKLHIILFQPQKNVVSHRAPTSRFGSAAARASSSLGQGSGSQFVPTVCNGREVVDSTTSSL

[3] = test system: rats; assay: Reversal of the effect of the mGluR2 PAM JNJ-42153605-induced inhibition of scopolamine-induced hyperlocomotion; assay type: in vivo, rat; conditions: Rattus norvegicus; rats, route PO, criterion total distance >1500 cm; read-out: ED50 SCOP JNJ-42153605 (Reversal of the effect of JNJ 42153605 on scopolamine-induced hyperlocomotion)
Experimental: 2) Reversal of the Effect of the mGluR2 PAM JNJ-42153605-Induced Inhibition of Scopolamine-Induced Hyperlocomotion
Motor activity was measured in microprocessor-based motor activity arenas (closed gray PVC cylinders with a height of 39 cm and a diameter of 31 cm). Each arena was placed on an infrared LED (8×8 LEDs) lit box (white PVC squared box; 40×40 cm^2; height 12.5 cm. An infrared-sensitive tube camera and a white light source were mounted to the ceiling above the observation chamber to track the animal. The total distance traveled (cm) was recorded and analyzed using the Noldus Ethovision XT Video Tracking System (Version 7.0.418; Noldus, Wageningen, The Netherlands). The intensity of the light within the activity cages (measured in the centre at the level of the floor) ranged between 4 and 8 LUX.
The rats were pretreated with test compound or vehicle at 60 min before the start of the activity recordings and placed into individual cages. The rats were challenged with JNJ-42153605 (3-(cyclopropylmethyl)-7-(4-phenylpiperidin-1-yl)-8-(trifluoromethyl)[1,2,4]triazolo[4,3-a]pyridine; WO2010/130424; Cid et al. J. Med. Chem. 2012, 55, 8770-8789) (20 mg/kg, i.v.) 30 min before the start of the activity recording combined with scopolamine (0.16 mg/kg, i.v.) just before the start of the activity measurements. Immediately after the injection of scopolamine, the rats were placed into the activity monitors and total distance traveled over the first 30 min was measured.
For reversal of the inhibitory effect of JNJ-42153605 on the scopolamine-induced hyperlocomotion, the following all-or-none criteria were adopted: (1) reversal: total distance >1500 cm.

| SMILES | Palpebral opening score, Occurrence score > 26 (%) ([1]; control animals, scores cumulated over 60 min after apomorphine 1.0 mg/kg i.v., LY-404039 2.5 mg/kg s.c. 1 h before apomorphine) | IC50 [2] [M] | Emax [2] [%] | ED50 [3] [mg/kg] | ED50 [1] [mg/kg] | melting point [°C] |
| --- | --- | --- | --- | --- | --- | --- |
| N[C@@]1(C(=O)O)CS(=O)(=O)[C@H]2[C@H](C(=O)O)[C@H]21 [LY-404039, reference compound] | 3.2 | – | – | – | – | – |
| C[C@H]1CN(c2ccc(C(F)(F)F)cc2)C(=O)c2c(C(=O)Nc3cncc(F)c3)cnn21 [compound 13] | – | 2.24e-09 | 110 | 0.32 | 0.32 | 196.7 |
| Cc1ccncc1NC(=O)c1cnn2c1C(=O)N(c1ccc(C(F)(F)F)cc1)C[C@@H]2C [compound 14] | – | 2.45e-09 | 109 | 0.13 | 0.13 | 249.5 |
| C[C@H]1CN(c2ccc(C(F)(F)F)c(F)c2)C(=O)c2c(C(=O)Nc3ccccn3)cnn21 [compound 20] | – | 1.07e-08 | 113 | > 2.5 | > 2.5 | 199.2 |
| C[C@H]1CN(c2ccc(Cl)c(Cl)c2)C(=O)c2c(C(=O)Nc3ccccn3)cnn21 [compound 25] | – | 3.09e-09 | 112 | > 2.5 | > 10 | 258.4 |
| Cc1cc(N2C[C@H](C)n3ncc(C(=O)Nc4ccccn4)c3C2=O)ccc1C(F)(F)F [compound 35] | – | 3.98e-09 | 114 | > 2.5 | > 10 | 227.3 |
| Cc1cncc(NC(=O)c2cnn3c2C(=O)N(c2ccc(C(F)(F)F)c(C)c2)C[C@@H]3C)c1 [compound 37] | – | 7.24e-10 | 108 | > 0.63 | > 0.63 | 202.8 |
| COc1cncc(NC(=O)c2cnn3c2C(=O)N(c2ccc(C(F)(F)F)c(C)c2)C[C@@H]3C)c1 [compound 40] | – | 2.14e-09 | 111 | > 0.63 | > 0.63 | 194.8 |
| C[C@H]1CN(c2ccc(Cl)cc2)C(=O)c2c(C(=O)Nc3cccnc3)cnn21 [compound 41] | – | 6.17e-09 | 106 | > 0.63 | 0.32 | 180 |
| C[C@H]1CN(c2ccc(C(F)(F)F)c(Cl)c2)C(=O)c2c(C(=O)Nc3ccccn3)cnn21 [compound 46] | – | 2.75e-09 | 113 | > 2.5 | 1.99 | 223 |
| Cc1cc(NC(=O)c2cnn3c2C(=O)N(c2ccc(Cl)c(OC(F)F)c2)C[C@@H]3C)ccn1 [compound 84, (7S)-5-[4-chloro-3-(difluoromethoxy)phenyl]-7-methyl-N-(2-methyl-4-pyridyl)-4-oxo-6,7-dihydropyrazolo[1,5-a]pyrazine-3-carboxamide] | – | 7.41e-09 | 112 | – | > 2.5 | 196.7 |
| Cc1cc(NC(=O)c2cnn3c2C(=O)N(c2ccc(C(F)(F)F)cn2)C[C@@H]3C)ccn1 [compound 88] | – | 8.51e-09 | 106 | – | > 2.5 | 244.9 |
| C[C@H]1CN(c2ccc(C(F)(F)F)cc2)C(=O)c2c(C(=O)Nc3cnccn3)cnn21 [compound 100] | – | 2.95e-09 | 119 | 0.2 | 0.32 | 225 |
| Cc1cc(NC(=O)c2cnn3c2C(=O)N(c2ccc(C(F)(F)F)c(Cl)c2)C[C@@H]3C)cc(C)n1 [compound 107] | – | 1.48e-09 | 107 | > 0.63 | > 0.63 | – |
| Cc1cc(NC(=O)c2cnn3c2C(=O)N(c2ccc(C(F)(F)F)c(C)c2)C[C@@H]3C)cc(C)n1 [compound 111] | – | 1.45e-09 | 109 | 0.32 | – | 161.92 |
| Cc1cncc(NC(=O)c2cnn3c2C(=O)N(c2ccc(C(F)(F)F)c(Cl)c2)C[C@@H]3C)c1C [compound 126] | – | 1.17e-09 | 108 | > 0.63 | > 0.63 | 229.17 |
| COc1cncc(NC(=O)c2cnn3c2C(=O)N(c2ccc(C(F)(F)F)c(Cl)c2)C[C@@H]3C)c1C [compound 127] | – | 4.07e-09 | 108 | > 0.63 | – | 185.94 |
| Cc1c(F)cncc1NC(=O)c1cnn2c1C(=O)N(c1ccc(C(F)(F)F)c(Cl)c1)C[C@@H]2C [compound 133, (7S)-5-[3-chloro-4-(trifluoromethyl)phenyl]-N-(5-fluoro-4-methyl-3-pyridyl)-7-methyl-4-oxo-6,7-dihydropyrazolo[1,5-a]pyrazine-3-carboxamide] | – | 9.12e-10 | 105 | > 0.63 | – | 167.78 |
| C[C@H]1CN(c2ccc(C(F)(F)F)cc2)C(=O)c2c(C(=O)Nc3nccs3)cnn21 [compound 140] | – | 9.33e-09 | 111 | > 2.5 | – | 246.7 |
| C[C@H]1CN(c2ccc(C(F)(F)F)cc2)C(=O)c2c(C(=O)Nc3ccncn3)cnn21 [compound 141] | – | 8.32e-09 | 113 | > 2.5 | – | 224.9 |
| C[C@H]1CN(c2ccc(C(F)(F)F)cc2)C(=O)c2c(C(=O)Nc3cnccc3CO)cnn21 [compound 147] | – | 5.37e-08 | 103 | > 0.63 | – | 212.57 |
| C[C@H]1CN(c2ccc(C(F)(F)F)cc2)C(=O)c2c(C(=O)Nc3ccnc(CF)c3)cnn21 [compound 151] | – | 2.69e-09 | 115 | > 0.63 | – | 152.64 |
| C[C@H]1CN(c2ccc(OC(F)(F)F)c(Cl)c2)C(=O)c2c(C(=O)Nc3cccnc3)cnn21 [compound 152] | – | 1.05e-09 | 108 | 0.08 | – | 145.36 |
| Cc1cc(NC(=O)c2cnn3c2C(=O)N(c2ccc(Cl)c(C)c2)C[C@@H]3C)cc(C)n1 [compound 160] | – | 3.55e-09 | 112 | > 0.63 | – | 178.1 |
| Cc1cc(N2C[C@H](C)n3ncc(C(=O)Nc4cnccn4)c3C2=O)ccc1Cl [compound 161] | – | 2.82e-09 | 108 | > 0.63 | – | 233.4 |

From patent US20200121677A1, “SUBSTITUTED 6,7-DIHYDROPYRAZOLO[1,5-a]PYRAZINES AS NEGATIVE ALLOSTERIC MODULATORS OF MGLUR2 RECEPTORS” (Janssen Pharmaceutica NV, priority 2014, published 2020)
